Measured values published in US7119094B1, “Substituted polycyclic aryl and heteroarpyl pyrazinones useful for selective inhibition of the coagulation cascade” (Warner-Lambert Company, priority 2000, dated 2006).
Like-named read-outs stand apart in the source and are kept apart here.

Columns and labels:
Human thrombin [1] = molecular target: T1, Human thrombin (Homo sapiens, UniProt P00734)
[2] = molecular target: T2, Trypsin (type 1× from porcine pancreas) (Sus scrofa, UniProt P00761); assay: Trypsin Assay; format: biochemical
T2 construct: Trypsin (5 ug/ml; type 1× from porcine pancreas); purchased Sigma, St. Louis Mo; host or cells: porcine pancreas

[3] = molecular target: T3, recombinant soluble tissue factor and recombinant human factor VIIa (TF-VIIa) (Homo sapiens, UniProt P08709); assay: TF-VIIa Assay; format: biochemical
T3 construct: conversion of coagulation factor VII to VIIa by Xa; purchased American Diagnostica, Greenwich Conn; host or cells: factor VIIa purchased; soluble TF made in house in E. coli

Human factor Xa = molecular target: T4, Human factor Xa (Homo sapiens, UniProt P00742); assay: Xa Assay; format: biochemical; details: for IC50: cells without % sign; for % Inhibition Factor Xa (30 µM): at 30 µM
T4 construct: Human factor Xa (0.3 nM); purchased Enzyme Research Laboratories, South Bend Ind

Human thrombin [4] = molecular target: T1, Human thrombin; assay: biochemical
[5] = cells without % sign, read-out: IC50 TF-VIIa
[6] = cells without % sign, read-out: IC50 Trypsin II

T3 sequence (P08709 213-466 limits assumed): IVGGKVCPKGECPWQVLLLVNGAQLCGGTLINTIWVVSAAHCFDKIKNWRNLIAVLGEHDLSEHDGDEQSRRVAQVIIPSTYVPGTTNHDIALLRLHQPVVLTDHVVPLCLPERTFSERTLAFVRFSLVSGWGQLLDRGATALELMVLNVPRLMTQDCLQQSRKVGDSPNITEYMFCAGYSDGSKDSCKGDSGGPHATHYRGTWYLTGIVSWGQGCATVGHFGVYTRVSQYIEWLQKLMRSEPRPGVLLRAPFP
T3 sequence (P08709 61-212 limits assumed): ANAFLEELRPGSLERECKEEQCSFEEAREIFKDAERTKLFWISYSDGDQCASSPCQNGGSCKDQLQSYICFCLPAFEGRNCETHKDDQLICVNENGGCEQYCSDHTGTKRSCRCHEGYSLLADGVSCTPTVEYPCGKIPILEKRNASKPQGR
T3 sequence (P13726 33-251 partner limits assumed): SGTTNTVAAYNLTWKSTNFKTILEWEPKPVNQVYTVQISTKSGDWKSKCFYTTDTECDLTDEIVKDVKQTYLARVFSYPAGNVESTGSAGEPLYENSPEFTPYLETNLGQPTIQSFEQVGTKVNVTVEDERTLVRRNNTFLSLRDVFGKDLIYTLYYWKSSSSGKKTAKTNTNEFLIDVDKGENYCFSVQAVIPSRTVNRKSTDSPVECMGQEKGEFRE
T4 sequence (P00742 235-488 limits assumed): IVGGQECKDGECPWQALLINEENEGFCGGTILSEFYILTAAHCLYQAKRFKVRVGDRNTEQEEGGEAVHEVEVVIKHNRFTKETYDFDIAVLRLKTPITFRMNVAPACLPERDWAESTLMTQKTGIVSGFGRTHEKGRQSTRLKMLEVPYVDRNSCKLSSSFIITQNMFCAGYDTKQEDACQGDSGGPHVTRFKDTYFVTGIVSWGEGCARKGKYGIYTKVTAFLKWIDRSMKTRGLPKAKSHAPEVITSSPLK
T4 sequence (P00742 41-179 limits assumed): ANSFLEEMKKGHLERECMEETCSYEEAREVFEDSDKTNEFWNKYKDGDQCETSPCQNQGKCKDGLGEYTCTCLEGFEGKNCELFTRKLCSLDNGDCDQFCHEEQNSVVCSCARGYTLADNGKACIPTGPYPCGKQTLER
T2 sequence (P00761 9-231): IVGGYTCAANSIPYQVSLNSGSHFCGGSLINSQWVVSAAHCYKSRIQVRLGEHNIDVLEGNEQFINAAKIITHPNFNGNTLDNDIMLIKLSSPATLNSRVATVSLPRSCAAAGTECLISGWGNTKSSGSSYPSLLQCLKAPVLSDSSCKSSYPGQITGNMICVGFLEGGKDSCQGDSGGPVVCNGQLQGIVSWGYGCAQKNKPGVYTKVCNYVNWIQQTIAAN

O=C(Cn1c(-c2ccc(-c3ccccc3)cc2)c(Cl)nc(NCCc2cccc(Cl)c2)c1=O)NCCc1cccnc1 [Example E-0116]
% Inhibition Thrombin II (100 νM) (Human thrombin [1]): 0% | % Inhibition Trpysin II (100 νM) [2]: 10%

O=C(Cn1c(-c2ccc(-c3ccccc3)cc2)c(Cl)nc(NCCc2ccncc2)c1=O)NCCc1ccncc1 [Example E-0054]
% Inhibition Thrombin II (100 νM) (Human thrombin [1]): 0%

N=C(N)c1ccc(CNC(=O)Cn2c(-c3cccc(N)c3)c(Cl)nc(NC3CC4CCC3C4)c2=O)cc1 (centres unmarked) [1526-30]
IC50 [3, 5]: 0.08 µM | IC50 (Human factor Xa): > 30 µM | IC50 [2, 6]: 0.2 µM

O=C(Cn1c(-c2ccc(-c3ccccc3)cc2)c(Cl)nc(NCCN2CCOCC2)c1=O)NCCc1ccncc1 [Example E-0055]
% Inhibition Thrombin II (100 νM) (Human thrombin [1]): 0% | % Inhibition TF-VIIa (100 νM) [3]: 0% | % Inhibition Trpysin II (100 νM) [2]: 0%

O=C(Cn1c(-c2ccc(-c3ccccc3)cc2)c(Cl)nc(NCc2ccccc2)c1=O)NCCc1cccnc1 [Example E-0110]
% Inhibition Thrombin II (100 νM) (Human thrombin [1]): 0% | % Inhibition TF-VIIa (100 νM) [3]: 0%

N=C(N)c1ccc(CNC(=O)Cn2c(-c3cccc(N)c3)c(Cl)nc(NCCCCCC(N)=O)c2=O)cc1 [1543-11]
IC50 [3, 5]: 0.07 µM | % Inhibition Factor Xa (30 µM) (Human factor Xa; cells with % sign, and bare 0): 24% | IC50 [2, 6]: 0.04 µM

CC(C(=O)NCc1ccc(C(=N)N)cc1)n1c(-c2ccccc2)c(Cl)nc(NCCc2ccccc2)c1=O (centres unmarked) [Example 1517-15]
IC50 [3, 5]: 3.1 µM | % Inhibition Factor Xa (30 µM) (Human factor Xa; cells with % sign, and bare 0): 0% | IC50 [2, 6]: 1.5 µM

CC(C)Nc1nc(Cl)c(-c2cc(N)cc(C(=O)NCc3ccc(Br)cc3)c2)n(CC(=O)NCc2ccc(C(=N)N)cc2)c1=O [Example 128-8]
% Inhibition Factor Xa at 100 μM (Human factor Xa): 44% at

CC(C)Nc1nc(Cl)c(-c2cc(N)cc(C(=O)NCc3ccc(Cl)cc3Cl)c2)n(CC(=O)NCc2ccc(C(=N)N)cc2)c1=O [Example 128-5]
% Inhibition Factor Xa at 100 μM (Human factor Xa): 43% at

O=C(Cn1c(-c2ccc(-c3ccccc3)cc2)c(Cl)nc(NCCc2ccc(Cl)cc2)c1=O)NCCc1cccnc1 [Example E-0119]
% Inhibition Thrombin II (100 νM) (Human thrombin [1]): 0% | % Inhibition Trpysin II (100 νM) [2]: 10%

O=C(Cn1c(-c2ccc(-c3ccccc3)cc2)c(Cl)nc(NCc2ccncc2)c1=O)NCCc1ccncc1 [Example E-0056]
% Inhibition Thrombin II (100 νM) (Human thrombin [1]): 0% | % Inhibition TF-VIIa (100 νM) [3]: 0% | % Inhibition Trpysin II (100 νM) [2]: 0%

O=C(Cn1c(-c2ccc(-c3ccccc3)cc2)c(Cl)nc(NCCc2cccnc2)c1=O)NCCc1ccncc1 [Example E-0053]
% Inhibition Thrombin II (100 νM) (Human thrombin [1]): 0% | % Inhibition TF-VIIa (100 νM) [3]: 0% | % Inhibition Trpysin II (100 νM) [2]: 0%

CC(C(=O)NCc1ccc(C(=N)N)cc1)n1c(-c2ccccc2)c(Cl)nc(NCCc2cccc(Cl)c2)c1=O (centres unmarked) [Example 1517-23]
IC50 [3, 5]: 2.3 µM | % Inhibition Factor Xa (30 µM) (Human factor Xa; cells with % sign, and bare 0): 0% | IC50 [2, 6]: 1.4 µM

CC(C(=O)NCc1ccc(C(=N)N)cc1)n1c(-c2ccccc2)c(Cl)nc(NCc2ccccc2)c1=O (centres unmarked) [Example 1517-03]
IC50 [3, 5]: 9 µM | % Inhibition Factor Xa (30 µM) (Human factor Xa; cells with % sign, and bare 0): 0% | IC50 [2, 6]: 2 µM

N=C(N)c1ccc(C(=O)NCCn2c(-c3cccc(N)c3)c(Cl)nc(NC3CCC3)c2=O)cc1 [Example 136]
IC50 (Human thrombin [4]): > 30 µM

Nc1cccc(-c2c(Cl)nc(NC3CCC3)c(=O)n2CC(=O)N2CCC3(CC2)OCCO3)c1 [1543-41]
% Inhibition TF-VIIa (30 µM) ([3]; at 30 µM, cells with % sign): 3% | % Inhibition Factor Xa (30 µM) (Human factor Xa; cells with % sign, and bare 0): 9% | % Inhibition Trypsin II (30 µM) ([2]; at 30 µM, cells with % sign): 6%

CCN(CC)CC(C)Nc1nc(Cl)c(-c2cccc(N)c2)n(CC(=O)NCc2ccc(C(=N)N)cc2)c1=O (centres unmarked) [1543-25]
IC50 [3, 5]: 0.28 µM | % Inhibition Factor Xa (30 µM) (Human factor Xa; cells with % sign, and bare 0): 26% | IC50 [2, 6]: 0.05 µM

CC(CC(=O)O)Nc1nc(Cl)c(-c2cccc(N)c2)n(CC(=O)NCc2ccc(C(=N)N)cc2)c1=O (centres unmarked) [Example 130]
% Inhibition Factor Xa at 100 μM (Human factor Xa): 24% at

CC(C(=O)NCc1ccc(C(=N)N)cc1)n1c(-c2ccccc2)c(Cl)nc(NC2CCC2)c1=O (centres unmarked) [Example 1517-09]
IC50 [3, 5]: 2.6 µM | % Inhibition Factor Xa (30 µM) (Human factor Xa; cells with % sign, and bare 0): 0% | IC50 [2, 6]: 1.5 µM

CCC(C)(C)Nc1nc(Cl)c(-c2cccc(N)c2)n(CC(=O)NCc2ccc(C(=N)N)cc2)c1=O [1526-06]
IC50 [3, 5]: 0.17 µM | IC50 (Human factor Xa): > 30 µM | IC50 [2, 6]: 0.21 µM

N=C(N)c1ccc(CNC(=O)Cn2c(-c3cccc(N)c3)c(Cl)nc(NC(CC(=O)O)c3ccccc3)c2=O)cc1 (racemic) [Example 131]
IC50 ([3]; read-out: IC50 TF-VIIa, cell printed 'at 100 μM', cell adds 'at 100 μM'): 0.14 µM | % Inhibition Factor Xa at 100 μM (Human factor Xa): 21% at | IC50 ([2]; read-out: IC50 Trypsin II, cell printed 'at 100 μM', cell adds 'at 100 μM'): 0.048 µM

C[C@H](Nc1nc(Cl)c(-c2cccc(N)c2)n(CC(=O)NCc2ccc(C(=N)N)cc2)c1=O)C(=O)O [Example 135]
% Inhibition Factor Xa at 100 μM (Human factor Xa): 6% at

CC(C(=O)NCc1ccc(C(=N)N)cc1)n1c(-c2ccccc2)c(Cl)nc(NCc2ccccc2)c1=O (centres unmarked) [Example 1517-05]
IC50 [3, 5]: 4.6 µM | % Inhibition Factor Xa (30 µM) (Human factor Xa; cells with % sign, and bare 0): 0% | IC50 [2, 6]: 1.2 µM

CC(C)CC(C)Nc1nc(Cl)c(-c2cccc(N)c2)n(CC(=O)NCc2ccc(C(=N)N)cc2)c1=O (centres unmarked) [1526-17]
IC50 [3, 5]: 0.08 µM | IC50 (Human factor Xa): > 30 µM | IC50 [2, 6]: 0.17 µM

O=C(Cn1c(CCc2ccccc2)c(Cl)nc(NCCc2ccncc2)c1=O)NCCc1ccncc1 [Example E-0070]
% Inhibition TF-VIIa (100 νM) ([3]; inhibitor at 100 νM): 0% | % Inhibition Trpysin II (100 νM) ([2]; inhibitor at 100 νM): 0%

O=C(Cn1c(-c2cccc(Cl)c2)c(Cl)nc(NCc2ccccc2)c1=O)NCCc1ccncc1 [Example E-0073]
% Inhibition TF-VIIa (100 νM) ([3]; inhibitor at 100 νM): 0% | % Inhibition Trpysin II (100 νM) ([2]; inhibitor at 100 νM): 6%

CC(C(=O)NCc1ccc(C(=N)N)cc1)n1c(-c2ccccc2)c(Cl)nc(NC2CCC2)c1=O (centres unmarked) [Example 1517-11]
IC50 [3, 5]: 3 µM | % Inhibition Factor Xa (30 µM) (Human factor Xa; cells with % sign, and bare 0): 0% | IC50 [2, 6]: 1.9 µM

Cc1c(Cl)nc(NCCc2cccnc2)c(=O)n1CC(=O)NCCc1ccncc1 [Example E-0005]
% Inhibition TF-VIIa (100 νM) ([3]; inhibitor at 100 νM): 0% | % Inhibition Trpysin II (100 νM) ([2]; inhibitor at 100 νM): 0%

O=C(Cn1c(-c2ccc(-c3ccccc3)cc2)c(Cl)nc(NCCc2ccccc2)c1=O)NCCc1ccncc1 [Example E-0050]
% Inhibition TF-VIIa (100 νM) [3]: 0% | % Inhibition Trpysin II (100 νM) [2]: 0%

O=C(Cn1c(-c2cccc(Cl)c2)c(Cl)nc(NCCc2ccc(Cl)cc2)c1=O)NCCc1cccnc1 [Example E-0083]
% Inhibition TF-VIIa (100 νM) ([3]; inhibitor at 100 νM): 2% | % Inhibition Trpysin II (100 νM) ([2]; inhibitor at 100 νM): 6%

CC(C(=O)NCc1ccc(C(=N)N)cc1)n1c(-c2ccccc2)c(Cl)nc(NCCc2ccccc2)c1=O (centres unmarked) [Example 1517-17]
IC50 [3, 5]: 1.8 µM | % Inhibition Factor Xa (30 µM) (Human factor Xa; cells with % sign, and bare 0): 0% | IC50 [2, 6]: 0.85 µM

O=C(Cn1c(Cc2ccccc2)c(Cl)nc(NCCc2ccc(Cl)cc2)c1=O)NCCc1ccncc1 [Example E-0060]
% Inhibition TF-VIIa (100 νM) ([3]; inhibitor at 100 νM): 0% | % Inhibition Trpysin II (100 νM) ([2]; inhibitor at 100 νM): 0%

COCC(C)Nc1nc(Cl)c(-c2ccccc2)n(CC(=O)NCc2ccc(C(=N)N)cc2)c1=O (centres unmarked) [1512-07]
IC50 ([3]; read-out: IC50 TF-VIIa): 3.6 µM | % Inhibition Factor Xa (30 µM) (Human factor Xa): 4%

Cc1c(Cl)nc(NCc2ccccc2)c(=O)n1CC(=O)NCCc1ccncc1 [Example E-0001]
% Inhibition TF-VIIa (100 νM) ([3]; inhibitor at 100 νM): 0% | % Inhibition Trpysin II (100 νM) ([2]; inhibitor at 100 νM): 0%

O=C(Cn1c(-c2ccc(-c3ccccc3)cc2)c(Cl)nc(NCCc2ccc(Cl)cc2)c1=O)NCCc1ccncc1 [Example E-0052]
% Inhibition TF-VIIa (100 νM) [3]: 0% | % Inhibition Trpysin II (100 νM) [2]: 0%

Cc1c(Cl)nc(NCCc2ccc(Cl)cc2)c(=O)n1CC(=O)NCCc1ccncc1 [Example E-0004]
% Inhibition TF-VIIa (100 νM) ([3]; inhibitor at 100 νM): 0% | % Inhibition Trpysin II (100 νM) ([2]; inhibitor at 100 νM): 0%
